# Measurements as given in US20220071999A1, “DESIGN AND DISCOVERY OF BD OXIDASE INHIBITORS FOR THE TREATMENT OF MYCOBACTERIAL DISEASES” (UNIVERSITY OF NOTRE DAME DU LAC, priority 2018, published 2022).
# Read-outs that look alike come from different tables or passages of the source.
# Tests used:
# [1] = tested on: Mycobacterium abscessus clinical specimens; assay: checkerboard assay (MIC) against Mycobacterium abscessus clinical specimens; assay type: cell-based; conditions: for MIC: Mycobacteroides abscessus; for Activity (effect on MICs in combination): ND-11992 with ND-11598
# Method: ND-11992 (bd oxidase inhibitor) and ND-11598 (cyt-bc1:aa3 inhibitor) were evaluated against various Mycobacterium abscessus clinical specimens in a checkerboard assay. Additive effects on MICs were observed when both drugs were used in combination. MIC values are given in μg/mL.
# [2] = tested on: Nontuberculous mycobacteria (NTM) clinical isolates of the Mycobacterium avium-intracellulare complex (MAIC); assay: checkerboard assay (MIC) against NTM clinical isolates of the MAIC; assay type: cell-based; conditions: for MIC: Mycobacterium avium-intracellulare
# Method: ND-11992 (bd oxidase inhibitor) and ND-11598 (cyt-bc1:aa3 inhibitor) were evaluated against various Nontuberculous mycobacteria (NTM) clinical isolates of the Mycobacterium avium-intracellulare complex (MAIC) in a checkerboard assay. Additive and synergistic effects on MICs were observed when both drugs were used in combination. MIC values are given in μg/mL.
# [3] = tested on: M. tuberculosis; assay: acute murine model of M. tuberculosis infection, alone and in combination; assay type: in vivo
# Method: ND-11992 (bd oxidase inhibitor) and Q203 (cyt-bc1:aa3 inhibitor) were evaluated in an acute murine model of M. tuberculosis infection alone and in combination. ND-11992 (10 mg/kg PO)+Q203 (5 mg/kg PO) results in bactericidal efficacy with 1.5 log 10 CFU drop in bacteria when dosed orally for 5 days. […] Both compounds were bacteriostatic when dosed alone as single agents.
compound,measurement,setting,value
Cc1ccn2c(C(=O)NCc3ccc(N4CCCN(c5ccc(C(F)(F)F)cc5)CC4)c(F)c3)c(C)nc2c1 [ND-11598],MIC,"[1]; M. abscessus Clinical Isolate #8, read-out: MIC ND-11598 alone",> 10 µg/mL
same,MIC,"[1]; M. abscessus Clinical Isolate #8, with 5 μg/ml ND 11992, read-out: ND-11598 MIC with 5 μg/ml ND 11992",5 µg/mL
same,MIC,"[1]; M. abscessus Clinical Isolate #38, read-out: MIC ND-11598 alone",> 10 µg/mL
same,MIC,"[1]; M. abscessus Clinical Isolate #38, with 5 μg/ml ND 11992, read-out: ND-11598 MIC with 5 μg/ml ND 11992",5 µg/mL
same,MIC,"[1]; M. abscessus Clinical Isolate #50, read-out: MIC ND-11598 alone",> 10 µg/mL
same,MIC,"[1]; M. abscessus Clinical Isolate #50, with 5 μg/ml ND 11992, read-out: ND-11598 MIC with 5 μg/ml ND 11992",10 µg/mL
same,MIC,"[2]; NTM Clinical Isolate #25, read-out: MIC ND-11598 alone",0.25 µg/mL
same,MIC,"[2]; NTM Clinical Isolate #25, with 0.5 μg/ml ND 11992, read-out: ND-11598 MIC with 0.5 μg/ml ND 11992",0.0156 µg/mL
same,MIC,"[2]; NTM Clinical Isolate #50, read-out: MIC ND-11598 alone",1 µg/mL
same,MIC,"[2]; NTM Clinical Isolate #50, with 0.5 μg/ml ND 11992, read-out: ND-11598 MIC with 0.5 μg/ml ND 11992",0.0156 µg/mL
same,MIC,"[2]; NTM MAIC A5 (serotype 4), read-out: MIC ND-11598 alone",1 µg/mL
same,MIC,"[2]; NTM MAIC A5 (serotype 4), with 0.5 μg/ml ND 11992, read-out: ND-11598 MIC with 0.5 μg/ml ND 11992",0.25 µg/mL
same,MIC,"[2]; NTM MAIC Serovar #4, read-out: MIC ND-11598 alone",> 10 µg/mL
same,MIC,"[2]; NTM MAIC Serovar #4, with 0.5 μg/ml ND 11992, read-out: ND-11598 MIC with 0.5 μg/ml ND 11992",0.25 µg/mL
same,MIC,"[2]; NTM MAIC Serovar #5, read-out: MIC ND-11598 alone",> 10 µg/mL
same,MIC,"[2]; NTM MAIC Serovar #5, with 0.5 μg/ml ND 11992, read-out: ND-11598 MIC with 0.5 μg/ml ND 11992",1 µg/mL
same,MIC,"[2]; NTM MAIC Serovar #6, read-out: MIC ND-11598 alone",0.0156 µg/mL
same,MIC,"[2]; NTM MAIC Serovar #6, with ND-11992 at 1 (column head: 0.5 μg/ml), read-out: ND-11598 MIC with ND 11992",0.0078 µg/mL
same,MIC,"[2]; NTM MAIC Serovar #10, read-out: MIC ND-11598 alone",10 µg/mL
same,MIC,"[2]; NTM MAIC Serovar #10, with 0.5 μg/ml ND 11992, read-out: ND-11598 MIC with 0.5 μg/ml ND 11992",0.25 µg/mL
FC(F)(F)c1ccc(Oc2ccc(Nc3ncnc4ccccc34)cc2)cc1 [ND-11992],CFU drop,[3]; 10 mg/kg of ND-11992 alone,no CFU drop
same,type of efficacy (bactericidal/bacteriostatic),"[3]; combination ND-11992 10 mg/kg PO + Q203 5 mg/kg PO, 5 days",bactericidal
same,CFU drop in bacteria,"[3]; combination ND-11992 10 mg/kg PO + Q203 5 mg/kg PO, dosed orally for 5 days",1.5 log 10 CFU
same,type of efficacy (bactericidal/bacteriostatic),[3]; dosed alone as single agents,bacteriostatic
same,MIC,"[1]; M. abscessus Clinical Isolate #8, with 5 μg/ml of ND-11598, read-out: ND-11992 MIC with 5 μg/ml of ND-11598",5 µg/mL
same,MIC,"[1]; M. abscessus Clinical Isolate #38, with 5 μg/ml of ND-11598, read-out: ND-11992 MIC with 5 μg/ml of ND-11598",5 µg/mL
same,MIC,"[1]; M. abscessus Clinical Isolate #50, with 5 μg/ml of ND-11598, read-out: ND-11992 MIC with 5 μg/ml of ND-11598",10 µg/mL
same,Activity (effect on MICs in combination),[1]; M. abscessus Clinical Isolate #8,Additive
same,Activity (effect on MICs in combination),[1]; M. abscessus Clinical Isolate #38,Additive
same,Activity (effect on MICs in combination),[1]; M. abscessus Clinical Isolate #50,Additive
same,MIC,"[2]; NTM Clinical Isolate #25, ND-11598 was only 0.125 μg/ml (column head: 0.5 μg/ml), read-out: ND-11992 MIC with ND-11598",0.0625 µg/mL
same,MIC,"[2]; NTM Clinical Isolate #50, with 0.5 μg/ml of ND-11598, read-out: ND-11992 MIC with 0.5 μg/ml of ND-11598",0.125 µg/mL
same,MIC,"[2]; NTM MAIC A5 (serotype 4), with 0.5 μg/ml of ND-11598, read-out: ND-11992 MIC with 0.5 μg/ml of ND-11598",0.25 µg/mL
same,MIC,"[2]; NTM MAIC Serovar #4, with 0.5 μg/ml of ND-11598, read-out: ND-11992 MIC with 0.5 μg/ml of ND-11598",0.5 µg/mL
same,MIC,"[2]; NTM MAIC Serovar #5, with 0.5 μg/ml of ND-11598, read-out: ND-11992 MIC with 0.5 μg/ml of ND-11598",1 µg/mL
same,MIC,"[2]; NTM MAIC Serovar #10, with 0.5 μg/ml of ND-11598, read-out: ND-11992 MIC with 0.5 μg/ml of ND-11598",0.5 µg/mL
same,Activity (effect on MICs in combination),"[2]; ND-11992 with ND-11598, NTM MAIC Serovar #6",Additive
CCc1nc2ccc(Cl)cn2c1C(=O)NCc1ccc(N2CCC(c3ccc(OC(F)(F)F)cc3)CC2)cc1 [Q203],type of efficacy (bactericidal/bacteriostatic),[3]; dosed alone as single agents,bacteriostatic
